The source of these data is patent US20090018134A1, “Compounds - 945” (AstraZeneca AB, priority 2007, published 2009).

One assay deals with T1, mTOR (Homo sapiens, UniProt P42345).
T1 construct: FLAG; made in house
T1 sequence (P42345 1362-2549): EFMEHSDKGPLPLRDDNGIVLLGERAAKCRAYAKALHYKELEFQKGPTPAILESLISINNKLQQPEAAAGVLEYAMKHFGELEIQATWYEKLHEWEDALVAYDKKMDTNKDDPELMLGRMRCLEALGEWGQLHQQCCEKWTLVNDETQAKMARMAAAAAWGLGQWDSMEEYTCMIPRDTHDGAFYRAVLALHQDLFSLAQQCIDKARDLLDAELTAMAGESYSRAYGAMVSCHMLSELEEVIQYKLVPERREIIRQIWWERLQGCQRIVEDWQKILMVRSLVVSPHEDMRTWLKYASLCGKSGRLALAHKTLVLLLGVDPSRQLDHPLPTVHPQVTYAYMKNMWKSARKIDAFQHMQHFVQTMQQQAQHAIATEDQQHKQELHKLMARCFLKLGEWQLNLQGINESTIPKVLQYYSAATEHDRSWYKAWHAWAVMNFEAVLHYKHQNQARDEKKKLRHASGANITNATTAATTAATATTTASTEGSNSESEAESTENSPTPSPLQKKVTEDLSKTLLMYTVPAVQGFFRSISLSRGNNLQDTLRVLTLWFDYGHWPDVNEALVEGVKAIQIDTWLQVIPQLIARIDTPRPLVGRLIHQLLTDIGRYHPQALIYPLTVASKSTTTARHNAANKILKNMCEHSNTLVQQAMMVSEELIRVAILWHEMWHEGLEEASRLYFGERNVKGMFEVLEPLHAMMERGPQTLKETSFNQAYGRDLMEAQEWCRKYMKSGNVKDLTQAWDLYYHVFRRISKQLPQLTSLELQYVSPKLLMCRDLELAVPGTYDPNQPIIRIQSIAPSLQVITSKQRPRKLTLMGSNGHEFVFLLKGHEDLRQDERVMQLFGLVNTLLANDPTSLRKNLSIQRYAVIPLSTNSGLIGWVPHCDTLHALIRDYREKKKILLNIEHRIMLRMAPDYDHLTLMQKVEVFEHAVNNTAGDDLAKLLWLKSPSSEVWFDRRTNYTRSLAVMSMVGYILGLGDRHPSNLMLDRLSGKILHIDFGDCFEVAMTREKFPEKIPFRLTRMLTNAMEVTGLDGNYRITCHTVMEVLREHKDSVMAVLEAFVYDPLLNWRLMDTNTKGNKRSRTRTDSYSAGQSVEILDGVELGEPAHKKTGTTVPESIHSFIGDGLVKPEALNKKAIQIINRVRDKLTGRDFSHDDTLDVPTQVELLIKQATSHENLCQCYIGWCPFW
Briefly: In Vitro mTOR Kinase Assay (Echo), Test (a)(ii). The assay is classed as biochemical. The conditions noted are these: read-out: mTOR Kinase Assay (Echo). The procedure, abridged:
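AlphaScreen read-out: biotinylated substrate phosphorylation was detected with anti-p70 S6K (T389) 1A5 antibody, Protein A acceptor and streptavidin donor beads after overnight dark incubation at room temperature. Enzyme was FLAG-mTOR 1362-2549 from stable HEK293 cells.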
In the case of `C[C@H]1COCCN1c1cc(C2(S(C)(=O)=O)CCC2)nc(-c2ccc(NC(=O)Nc3ccc(C(F)(F)F)cc3)cc2)n1` [Example 5k, 1-[4-[4-[(3S)-3-methylmorpholin-4-yl]-6-(1-methylsulfonylcyclobutyl)pyrimidin-2-yl]phenyl]-3-[4-(trifluoromethyl)phenyl]urea], the IC50 stood at 3.33 nM.

Regarding `C[C@H]1COCCN1c1cc(C2(S(C)(=O)=O)CCC2)nc(-c2ccc(NC(=O)Nc3ccccn3)cc2)n1` [Example 5l, 1-[4-[4-[(3S)-3-methylmorpholin-4-yl]-6-(1-methylsulfonylcyclobutyl)pyrimidin-2-yl]phenyl]-3-pyridin-2-yl-urea], the IC50 is 0.248 nM. On to `C[C@H]1COCCN1c1cc(C2(S(C)(=O)=O)CCC2)nc(-c2ccc(NC(=O)Nc3cnn(C)c3)cc2)n1` [Example 5m, 1-[4-[4-[(3S)-3-methylmorpholin-4-yl]-6-(1-methylsulfonylcyclobutyl)pyrimidin-2-yl]phenyl]-3-(1-methylpyrazol-4-yl)urea], for which the IC50 was 0.69 nM. On to `C[C@H]1COCCN1c1cc(C2(S(C)(=O)=O)CCC2)nc(-c2ccc(NC(=O)NCc3ncc[nH]3)cc2)n1` [Example 5n, 3-(1H-imidazol-2-ylmethyl)-1-[4-[4-[(3S)-3-methylmorpholin-4-yl]-6-(1-methylsulfonylcyclobutyl)pyrimidin-2-yl]phenyl]urea], for which the IC50 turned out to be 8.28 nM.

With `C[C@H]1COCCN1c1cc(C2(S(=O)(=O)c3ccncc3)CC2)nc(-c2ccc(NC(=O)NC3CCC3)cc2)n1` [Example 6, 3-Cyclobutyl-1-[4-[4-[(3S)-3-methylmorpholin-4-yl]-6-(1-pyridin-4-ylsulfonylcyclopropyl)pyrimidin-2-yl]phenyl]urea], the IC50 is 1 nM. For the compound `C[C@H]1COCCN1c1cc(C2(S(=O)(=O)c3ccncc3)CC2)nc(-c2ccc(NC(=O)Nc3ccccn3)cc2)n1` [Example 6a, 1-[4-[4-[(3S)-3-methylmorpholin-4-yl]-6-(1-pyridin-4-ylsulfonylcyclopropyl)pyrimidin-2-yl]phenyl]-3-pyridin-2-yl-urea], the IC50 came to 2.93 nM. On to `CC(C)CNC(=O)Nc1ccc(-c2nc(N3CCOC[C@@H]3C)cc(C3(S(=O)(=O)c4ccncc4)CC3)n2)cc1` [Example 6b, 1-[4-[4-[(3S)-3-methylmorpholin-4-yl]-6-(1-pyridin-4-ylsulfonylcyclopropyl)pyrimidin-2-yl]phenyl]-3-(2-methylpropyl)urea], for which the IC50 came out at 6.12 nM. The same measure, in the same setting: the figure for `CC(C)NC(=O)Nc1ccc(-c2nc(N3CCOC[C@@H]3C)cc(C3(S(=O)(=O)c4ccncc4)CC3)n2)cc1` [Example 6c, 1-[4-[4-[(3S)-3-methylmorpholin-4-yl]-6-(1-pyridin-4-ylsulfonylcyclopropyl)pyrimidin-2-yl]phenyl]-3-propan-2-yl-urea] is 3.21 nM; for `CCNC(=O)Nc1ccc(-c2nc(N3CCOC[C@@H]3C)cc(C3(S(=O)(=O)c4ccncc4)CC3)n2)cc1` [Example 6d, 3-ethyl-1-[4-[4-[(3S)-3-methylmorpholin-4-yl]-6-(1-pyridin-4-ylsulfonylcyclopropyl)pyrimidin-2-yl]phenyl]urea] it is 0.874 nM. The same measure, in the same setting: the figure for `C[C@H]1COCCN1c1cc(C2(S(=O)(=O)c3ccncc3)CC2)nc(-c2ccc(NC(=O)NCCN(C)C)cc2)n1` [Example 6e, 3-(2-dimethylaminoethyl)-1-[4-[4-[(3S)-3-methylmorpholin-4-yl]-6-(1-pyridin-4-ylsulfonylcyclopropyl)pyrimidin-2-yl]phenyl]urea] is 67.3 nM; for `C[C@H]1COCCN1c1cc(C2(S(=O)(=O)c3ccncc3)CC2)nc(-c2ccc(NC(=O)NCCO)cc2)n1` [Example 6f, 3-(2-hydroxyethyl)-1-[4-[4-[(3S)-3-methylmorpholin-4-yl]-6-(1-pyridin-4-ylsulfonylcyclopropyl)pyrimidin-2-yl]phenyl]urea] it is 0.794 nM. On the same count and under the same terms, the figure for `CCCNC(=O)Nc1ccc(-c2nc(N3CCOC[C@@H]3C)cc(C3(S(=O)(=O)c4ccncc4)CC3)n2)cc1` [Example 6g, 1-[4-[4-[(3S)-3-methylmorpholin-4-yl]-6-(1-pyridin-4-ylsulfonylcyclopropyl)pyrimidin-2-yl]phenyl]-3-propyl-urea] is 2.25 nM. `C[C@H]1COCCN1c1cc(C2(S(=O)(=O)c3ccncc3)CC2)nc(-c2ccc(NC(=O)Nc3ccc(C(F)(F)F)cc3)cc2)n1` [Example 6i, 1-[4-[4-[(3S)-3-methylmorpholin-4-yl]-6-(1-pyridin-4-ylsulfonylcyclopropyl)pyrimidin-2-yl]phenyl]-3-[4-(trifluoromethyl)phenyl]urea]: the IC50 is 4.62 nM.

Regarding `C[C@H]1COCCN1c1cc(C2(S(=O)(=O)c3ccncc3)CC2)nc(-c2ccc(NC(=O)NC(C)(C)CO)cc2)n1` [Example 6j, 3-(1-hydroxy-2-methyl-propan-2-yl)-1-[4-[4-[(3S)-3-methylmorpholin-4-yl]-6-(1-pyridin-4-ylsulfonylcyclopropyl)pyrimidin-2-yl]phenyl]urea], the IC50 worked out at 5.93 nM. On the same count and under the same terms, the figure for `C[C@H]1COCCN1c1cc(C2(S(=O)(=O)c3ccncc3)CC2)nc(-c2ccc(NC(=O)NCCCO)cc2)n1` [Example 6k] is 1.86 nM; for `C[C@H]1COCCN1c1cc(C2(S(=O)(=O)c3ccncc3)CC2)nc(-c2ccc(NC(=O)Nc3cnn(C)c3)cc2)n1` [Example 6l, 1-[4-[4-[(3S)-3-methylmorpholin-4-yl]-6-(1-pyridin-4-ylsulfonylcyclopropyl)pyrimidin-2-yl]phenyl]-3-(1-methylpyrazol-4-yl)urea] it is 1.19 nM. On the same count and under the same terms, the figure for `C[C@H]1COCCN1c1cc(C2(S(=O)(=O)c3ccncc3)CC2)nc(-c2ccc(NC(=O)NC3CC3)cc2)n1` [Example 6m, 3-cyclopropyl-1-[4-[4-[(3S)-3-methylmorpholin-4-yl]-6-(1-pyridin-4-ylsulfonylcyclopropyl)pyrimidin-2-yl]phenyl]urea] is 0.936 nM; for `CNC(=O)Nc1ccc(-c2nc(N3CCOC[C@@H]3C)cc(C3(S(=O)(=O)C(C)C)CC3)n2)cc1` [Example 7, 3-Methyl-1-[4-[4-[(3S)-3-methylmorpholin-4-yl]-6-(1-propan-2-ylsulfonylcyclopropyl)pyrimidin-2-yl]phenyl]urea] it is 3.15 nM; for `CCNC(=O)Nc1ccc(-c2nc(N3CCOC[C@@H]3C)cc(C3(S(=O)(=O)C(C)C)CC3)n2)cc1` [Example 7a, 1-ethyl-3-[4-[4-[(3S)-3-methylmorpholin-4-yl]-6-(1-propan-2-ylsulfonylcyclopropyl)pyrimidin-2-yl]phenyl]urea] it is 2.31 nM.

On to `CC(C)NC(=O)Nc1ccc(-c2nc(N3CCOC[C@@H]3C)cc(C3(S(=O)(=O)C(C)C)CC3)n2)cc1` [Example 7b, 1-[4-[4-[(3S)-3-methylmorpholin-4-yl]-6-(1-propan-2-ylsulfonylcyclopropyl)pyrimidin-2-yl]phenyl]-3-propan-2-yl-urea], for which the IC50 worked out at 18.1 nM.

With `CC(C)S(=O)(=O)C1(c2cc(N3CCOC[C@@H]3C)nc(-c3ccc(NC(=O)NC4CCC4)cc3)n2)CC1` [Example 7c, 3-cyclobutyl-1-[4-[4-[(3S)-3-methylmorpholin-4-yl]-6-(1-propan-2-ylsulfonylcyclopropyl)pyrimidin-2-yl]phenyl]urea], the IC50 was 6.46 nM.

Staying with this assay, now noted: table of enzyme assay Test (a)(ii); read-out: Test (a)(ii) IC50.
On to `C[C@H]1COCCN1c1cc(C2(S(C)(=O)=O)CCC2)nc(-c2ccc(NC(=O)Nc3ccccn3)cc2)n1` [Example 5l, 1-[4-[4-[(3S)-3-methylmorpholin-4-yl]-6-(1-methylsulfonylcyclobutyl)pyrimidin-2-yl]phenyl]-3-pyridin-2-yl-urea], for which the IC50 was 0.237 nM. Consider `C[C@H]1COCCN1c1cc(C2(S(C)(=O)=O)CCC2)nc(-c2ccc(NC(=O)Nc3cnn(C)c3)cc2)n1` [Example 5m, 1-[4-[4-[(3S)-3-methylmorpholin-4-yl]-6-(1-methylsulfonylcyclobutyl)pyrimidin-2-yl]phenyl]-3-(1-methylpyrazol-4-yl)urea], for which the IC50 worked out at 0.604 nM.
